# Read-outs that look alike come from different tables or passages of the source. Marks after values point to notes of the source that are not given here.
# Tests used:
# Rh30 cells = conditions: 7.5 µM
# Procedure: (§4) Determination of apoptosis. An ApoAlert™ Annexin V-FITC Apoptosis kit (available from Clontech, Palo Alto, Calif.) can be used to evaluate the extent of apoptosis within cell populations. Cells (Rh1: 350,000 per 75-cm^2 flask; Rh18: 800,000 per 75-cm^2 flask; or Rh30: 500,000 per 75-cm^2 flask) are preferably grown overnight in complete medium. On day 1, cells are treated with DMSO (0.1%; vehicle control) or with a test compound (e.g., a phenoxazine or acridone compound). After 4 days, the cells are trypsinized, washed with PBS, and resuspended in 200 μl of binding buffer. Cells are then incubated with 10 μl of annexin V-FITC (final concentration, 1 μg/ml) and 500 ng of propidium iodide in a final volume of 410 μl. Cells are preferably incubated at room temperature in the dark for ten minutes before flow cytometric analysis with an FACSCalibur™ Flow Cytometry System (Becton Dickinson, San Jose, Calif.).
# (§5) For instance, Rh1, Rh18 and/or Rh30 cells can be grown in complete medium with 0.1% DMSO (as a negative control) or with one or more test compounds, e.g., any of the phenoxazine compounds listed in Table I, above, including but not limited to the compounds 10B, 11B, 13B, 14B or 15B. […] Cells are then harvested, and the extent of apoptosis evaluated, e.g., by an ApoAlert™ (Clontech, Palo Alto, Calif.) flow cytometric assay.
# Rh18 cells [1] = conditions: 7.5 µM
# Procedure: as §4, §5
# Rh1 cells [2] = assay: Cell growth inhibition, Rh1 cells; type: cell-based, human; conditions: complete medium, six days, nuclei counted
# Procedure: (§1) Cell lines and growth conditions. The human cell lines Rh1, Rh18, and Rh30 (ATCC Deposit # CRL 2061) have been described, e.g., by Hazelton et al. Cancer Res 1987;47:4501-4507 and Hosoi et al. Cancer Res. 1999;59:886-894. Rh1, Rh18 and Rh30 cells can each be grown in antibiotic free RPMI-1640 medium (available from BioWhittaker, Walkersville, Md.), supplemented with 10% fetal bovine serum (available from HyClone Laboratories, Logan, Utah) and 2 mM L-glutamine (available from BioWhittaker, Walkersville, Md.) at 37° C. in an atmosphere of 5% CO2. For serum free experiments, cells can be cultured in modified N2E (MN2E) medium (DMEM/F-12, 1:1 mixture) (Sigma, St. Louis, Mo.) supplemented with 1 μg/ml human holo transferrin, 30 nM sodium selenite, 20 nM progesterone, 100 μM putrescine, 30 nM vitamin E phosphate, and 50 μM ethanolamine. […]
# (§2) Cell growth inhibition. […] Growth can be assessed after lysing cells, and counting nuclei. […]
# (§3) The effect(s) of compounds, including phenoxazine compounds such as those listed in Table I, above, on cell growth can be evaluated in cell-based assays such as the exemplary assays described here. Rh1, Rh18 and/or Rh30 cells grown in complete medium can be exposed to graded concentrations of test compound (e.g., from 0.1 to 25 μM) for six days, at which time the cells can be lysed and their growth assessed by counting nuclei. […]
# Rh1 cells [3] = conditions: 6.5 µM
# Procedure: as §4, §5
# AKT1ΔPH = target: T1, AKT1ΔPH (Homo sapiens, UniProt P31749); assay: In vitro kinase assay with recombinant AKT lacking the pleckstrin homology domain; type: biochemical; conditions: AKTΔPH versus full-length AKT
# T1 construct: purchased Upstate Biotechnology
# Procedure: In vitro inhibition of recombinant AKT. In vitro kinase assays can be performed using an active, recombinant, full length AKT1/PKBα protein (available from Upstate Biotechnology, Lake Placid, N.Y.) or with an active, recombinant AKT1/PKBα protein, referred to herein as AKT1ΔPH, that lacks the pleckstrin homology domain (also available from Upstate Biotechnology). 10 ng of the recombinant enzyme in 25 μl 1× kinase buffer (25 mM Tris, pH 7.5; 5 mM β-glycerol phosphate; 2 mM dithiothreitol; 0.1 mM Na3VO4; and 10 mM MgCl2) is mixed with 2.5 μl of DMSO and a test compound (5 μM). Samples are incubated on ice for 1 hour, at which time 1 μg of GSK-3 fusion protein (Cell Signaling Technology, Beverly, Mass., catalog #9278) is added followed by ATP (200 μM) to each reaction mixture. After incubating the suspensions at 30° C. for 30 minutes, the reaction can be terminated by the addition of 3×SDS sample buffer (187.5 mM Tris-HCl, pH 6.8; 6% SDS; 30% glycerol; 150 mM dithiothreitol; and 0.03% bromophenol blue). The samples are then boiled for five minutes. The proteins can be separated on a 12% SDS polyacrylamide gel, and subsequently transferred to a nitrocellulose membrane. The membranes are preferably incubated with rabbit polyclonal anti-phospho-GSK-3α/β (Ser21/9) antibody (available from Cell Signaling Technology, Beverly, Mass., catalog # 9331). […]
# [4] = target: T2, recombinant p-110 gamma enzyme (Homo sapiens, UniProt P48736); assay: PI 3-kinase assay in vitro; type: biochemical; conditions: 5 μM; phosphatidylinositol substrate, [γ32P]-ATP, TLC
# T2 construct: purchased AG Scientific, San Diego, Calif
# Procedure: PI 3-kinase assay. […] 10 μg of phosphatidylinositol (available from Sigma, St. Louis, Mo.) can then be added to each sample, and the incubation preferably continues on ice for an additional 15 minutes. ATP (final concentration 25 μM containing 30 μCi of [γ^32p]-ATP) can be added to each sample, and the reaction mixtures incubated at 37° C. for 10 minutes. Reactions can be terminated by adding 20 μl of 6 N hydrochloric acid. The sample is preferably vortexed, and lipids extracted into 300 μl of MeOH:CHCl3 (1:1) mixture. After mixing gently and spinning at 10,000×g for 5 minutes, 50 μl of the organic phase is preferably spotted onto a silica coated thin layer chromatography (TLC) plate (available from EMD, La Jolla, Calif.) and developed using a solvent system containing CHCl3:MeOH:H2O:NH4OH (60:47:11.3:2). The TLC plate can then be allowed to dry, and the bands analyzed using a Storm 860 phosphoimager (available from Amersham Biosciences, Sunnyvale, Calif.).
# Lipids in such assays can be resolved by thin layer chromatography (TLC), and incorporated radiolabel quantitated using a phosphoimager.
# Rh18 cells [5] = assay: Determination of apoptosis (Annexin V-FITC/propidium iodide flow cytometry), Rh18 cells; conditions: Rh18, 7.5 μM, four days, n = 3
# Procedure: as §4, §5
# Rh18 cells [6] = assay: Cell growth inhibition, Rh18 cells; type: cell-based, human; conditions: complete medium, six days, nuclei counted
# Procedure: as §1, §2, §3
# Rh1 cells [7] = assay: Determination of apoptosis (Annexin V-FITC/propidium iodide flow cytometry), Rh1 cells; conditions: Rh1, 6.5 μM, four days, n = 3
# Procedure: as §4, §5
# T2 sequence (P48736 whole entry, species assumed): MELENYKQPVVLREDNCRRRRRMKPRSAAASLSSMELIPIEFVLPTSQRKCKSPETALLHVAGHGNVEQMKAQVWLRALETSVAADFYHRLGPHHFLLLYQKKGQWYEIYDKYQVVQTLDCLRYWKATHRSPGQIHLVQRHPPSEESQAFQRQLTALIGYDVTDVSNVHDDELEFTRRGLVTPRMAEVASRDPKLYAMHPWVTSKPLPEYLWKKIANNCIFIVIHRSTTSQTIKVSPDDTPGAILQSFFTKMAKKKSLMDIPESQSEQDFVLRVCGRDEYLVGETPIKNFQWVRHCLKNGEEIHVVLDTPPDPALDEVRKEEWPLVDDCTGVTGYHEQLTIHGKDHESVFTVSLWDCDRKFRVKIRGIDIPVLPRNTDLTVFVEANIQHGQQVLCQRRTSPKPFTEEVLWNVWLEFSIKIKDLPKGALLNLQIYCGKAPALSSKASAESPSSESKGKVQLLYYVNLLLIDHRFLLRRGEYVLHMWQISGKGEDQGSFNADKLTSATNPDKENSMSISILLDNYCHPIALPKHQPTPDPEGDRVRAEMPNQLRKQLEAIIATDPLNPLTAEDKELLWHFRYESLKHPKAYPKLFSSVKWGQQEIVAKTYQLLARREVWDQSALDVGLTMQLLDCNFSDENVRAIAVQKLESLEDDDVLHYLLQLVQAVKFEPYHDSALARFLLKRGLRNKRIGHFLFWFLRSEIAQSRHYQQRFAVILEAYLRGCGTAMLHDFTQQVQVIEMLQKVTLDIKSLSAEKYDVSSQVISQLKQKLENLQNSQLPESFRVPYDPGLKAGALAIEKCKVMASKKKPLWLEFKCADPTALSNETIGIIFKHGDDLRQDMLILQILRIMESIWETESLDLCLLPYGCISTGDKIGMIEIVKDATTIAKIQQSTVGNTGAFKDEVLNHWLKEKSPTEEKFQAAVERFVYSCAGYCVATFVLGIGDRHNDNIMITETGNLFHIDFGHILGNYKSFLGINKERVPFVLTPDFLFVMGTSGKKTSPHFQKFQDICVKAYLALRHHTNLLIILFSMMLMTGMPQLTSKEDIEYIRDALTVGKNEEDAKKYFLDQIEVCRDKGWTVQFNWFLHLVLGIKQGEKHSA
# T1 sequence (P31749 118-480 limits assumed, stated change not applied): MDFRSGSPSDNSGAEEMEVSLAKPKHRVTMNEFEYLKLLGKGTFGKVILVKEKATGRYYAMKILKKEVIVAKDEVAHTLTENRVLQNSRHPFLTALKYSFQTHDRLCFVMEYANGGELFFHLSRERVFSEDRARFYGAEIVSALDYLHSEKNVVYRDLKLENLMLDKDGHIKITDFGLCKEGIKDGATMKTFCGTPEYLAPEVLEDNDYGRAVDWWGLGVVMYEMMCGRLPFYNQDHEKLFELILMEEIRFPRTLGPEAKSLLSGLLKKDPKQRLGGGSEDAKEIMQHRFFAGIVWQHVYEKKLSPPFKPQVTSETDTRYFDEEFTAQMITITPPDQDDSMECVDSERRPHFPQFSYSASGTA
Molecule,"Percentage of cells ± SD, Viable (Rh30 cells)","Percentage of cells ± SD, Viable (Rh18 cells [1]) [%]",IC50 (Rh1 cells [2]) [µM],"Percentage of cells ± SD, Viable (Rh1 cells [3])",ability to inhibit AKT kinase activity after deletion of the PH domain (AKT1ΔPH),PI 3-kinase activity [4],"Percentage of cells ± SD, Apoptotic (Rh18 cells [5]) [%]",IC50 (Rh18 cells [6]) [µM],"Percentage of cells ± SD, Viable (Rh1 cells [7]) [%]","Percentage of cells ± SD, Viable (Rh18 cells [5]) [%]"
10-[4′-[(β-hydroxyethyl)piperazino]butyl]-2-chlorophenoxazine [Compound 15B],11.00 ± 2.16^d %,67.00 ± 7.48,2,23.33 ± 8.66^d %,unaffected by deletion of the PH domain,comparable to the untreated sample,32.70 ± 8.99,5,–,–
"CCN(CC)CCCCN1c2ccccc2Oc2ccc(Cl)cc21 [Compound 10B, 10-[4′-(N-diethylamino)butyl]-2-chlorophenoxazine]",–,–,2,–,unaffected by deletion of the PH domain,comparable to the untreated sample,34.33 ± 6.13,5,47.70 ± 7.90,65.00 ± 2.94
